# According to the Deep4Chem optical property database:
# Experiment: solvent given as SMILES
# [1] = in O=P(c1ccccc1)(c1ccccc1)c1ccc2oc3ccc(P(=O)(c4ccccc4)c4ccccc4)cc3c2c1
# [2] = in c1cc(-n2c3ccccc3c3ccccc32)cc(-n2c3ccccc3c3ccccc32)c1
structure (smiles),measurement,setting,value
Cc1ccc2c(c1)C1(c3ccccc3Oc3ccccc31)c1cc(C)ccc1N2c1ccc(-c2nc(-c3ccccc3)cc(-c3ccccc3)n2)cc1,fluorescence lifetime,[1],11 ns
COc1ccc(-c2c3ccccc3c(-c3ccc(OC)cc3)c3cc4ccccc4cc23)cc1,fluorescence lifetime,in ClCCl,12.1 ns
CCCCCCCCCCOc1ccc(C#Cc2ccc(C#Cc3ccc(OCCCCCCCCCC)c(OCCCCCCCCCC)c3)c3nc4c5ccccc5c5ccccc5c4nc23)cc1OCCCCCCCCCC,fluorescence lifetime,in C1CCOC1,8.24 ns
same,fluorescence lifetime,in Cc1ccccc1,7.1 ns
same,fluorescence lifetime,in ClCCl,8.66 ns
CN(C)c1ccc(-c2nc3cccnc3[nH]2)cc1,fluorescence lifetime,in C1CCCCC1,1.08 ns
same,fluorescence lifetime,in CC#N,1.58 ns
Cc1ccc2ccccc2c1,fluorescence lifetime,in C1CCCCC1,114 ns
COc1ccc(-c2cc3c(s2)c(C(C)=O)cc(=O)n3C)cc1,fluorescence lifetime,in ClCCl,1.51 ns
COC(=O)C(NC(=O)OC(C)(C)C)c1ccc2oc(-c3ccc(F)cc3)nc2c1 (stereo unspecified),fluorescence lifetime,in CC1CCCCC1,1.23 ns
same,fluorescence lifetime,in CC#N,1.47 ns
same,fluorescence lifetime,in CO,1.53 ns
CC1=C(c2ccc(N(C)C)cc2)C(C)=[N+]2C1=C(c1c(-c3ccccn3)nc3ccccn13)c1c(C)cc(C)n1[B-]2(F)F,fluorescence lifetime,in ClCCl,0.5 ns
O=C(O)c1ccc(C(=O)O)c2cc3ccccc3cc12,fluorescence lifetime,in C1CCOC1,19.2 ns
same,fluorescence lifetime,in CN(C)C=O,12.5 ns
Oc1ccc(Br)cc1-c1nc2c(c3c1-c1ccccc1CC3)-c1ccccc1CC2,fluorescence lifetime,in ClCCl,1.94 ns
CC1=C(I)C(C)=[N+]2C1=C(c1c(-c3ccccn3)nc3ccccn13)c1c(C)c(I)c(C)n1[B-]2(F)F,fluorescence lifetime,in ClCCl,0.4 ns
CCN1C(=O)C(C2C(=O)c3c4ccccc4cc4cc5ccccc5c2c34)C(=O)N(CC)C1=S (stereo unspecified),fluorescence lifetime,in C1CCOC1,11.1 ns
same,fluorescence lifetime,in CCCCCC,13.1 ns
same,fluorescence lifetime,in Cc1ccccc1,12.4 ns
same,fluorescence lifetime,in ClCCl,10.5 ns
CC(=O)[B-]1(C(C)=O)OC(c2ccccc2)=CC(c2ccccc2)=[O+]1,fluorescence lifetime,in CC#N,1.5 ns
same,fluorescence lifetime,in ClC(Cl)(Cl)Cl,2.1 ns
CC1=C(C(C)(C)C)C(C)=[N+]2C1=C(C)c1c(C)c(C(C)(C)C)c(C)n1[B-]2(F)F,fluorescence lifetime,in C1CCCCC1,3.91 ns
same,fluorescence lifetime,in C1CCOC1,4.15 ns
same,fluorescence lifetime,in C1COCCO1,4.37 ns
same,fluorescence lifetime,in CC#N,4.27 ns
same,fluorescence lifetime,in CC(C)=O,4.34 ns
same,fluorescence lifetime,in CC(C)CC(C)(C)C,4.43 ns
same,fluorescence lifetime,in CCC(C)C,4.19 ns
same,fluorescence lifetime,in CCCC(C)=O,4.54 ns
same,fluorescence lifetime,in CCCCCC,4.35 ns
same,fluorescence lifetime,in CCCCCCCCO,4.68 ns
same,fluorescence lifetime,in CCCCCCO,4.59 ns
same,fluorescence lifetime,in CCCCO,4.33 ns
same,fluorescence lifetime,in CCCCOC(C)=O,4.51 ns
same,fluorescence lifetime,in CCCO,4.19 ns
same,fluorescence lifetime,in CCO,4.09 ns
same,fluorescence lifetime,in CCOC(C)=O,4.31 ns
same,fluorescence lifetime,in CCOCC,4.27 ns
same,fluorescence lifetime,in CN(C)C=O,4.69 ns
same,fluorescence lifetime,in CNC=O,4.45 ns
same,fluorescence lifetime,in CO,4.21 ns
same,fluorescence lifetime,in COC(C)=O,4.44 ns
same,fluorescence lifetime,in OCC(F)(F)F,4.64 ns
CC1(C)C(/C=C/C2=C(Oc3ccc(CCN=C=S)cc3)C(=C/C=C3/N(CCCS(=O)(=O)[O-])c4ccccc4C3(C)C)/CCC2)=[N+](CCCS(=O)(=O)[O-])c2ccccc21,fluorescence lifetime,in CO,0.873 ns
COc1ccc(-c2ccc3c(c2)c2cc(-c4ccc(OC)cc4)ccc2n3-c2ccc(C(=O)c3ccc4sc5ccccc5c4c3)cn2)cc1,fluorescence lifetime,[2],5.9 ns
C=CCNS(=O)(=O)c1ccc2c(c1)C(=O)/C(=C1\Sc3ccc(S(=O)(=O)NCC=C)cc3C1=O)S2,fluorescence lifetime,in CN(C)C=O,8.17 ns
same,fluorescence lifetime,in CS(C)=O,0.06 ns
Cc1ccccc1C1=C2C=c3c(oc4ccc(F)cc34)=[N+]2[B-](F)(F)n2c1cc1c3cc(F)ccc3oc12,fluorescence lifetime,in C1CCCCC1,4.02 ns
same,fluorescence lifetime,in CCOC(C)=O,4.22 ns
same,fluorescence lifetime,in CO,4.3 ns
F[B-]1(F)OC(c2cccc(Br)c2)=Cc2c3ccccc3cc[n+]21,fluorescence lifetime,in ClC(Cl)Cl,0.173 ns
Fc1c(-c2nnc(-c3ccccc3)o2)c(-n2c3ccccc3c3ccccc32)c(F)c(-n2c3ccccc3c3ccccc32)c1-n1c2ccccc2c2ccccc21,fluorescence lifetime,in Cc1ccccc1,7.7 ns
CCN(CC)c1ccc2cc(-c3ccc(-c4ccc5ccc6c(-c7ccc(-c8cc9ccc(N(CC)CC)cc9oc8=O)cc7)ccc7ccc4c5c76)cc3)c(=O)oc2c1,fluorescence lifetime,in ClC(Cl)Cl,8.46 ns
COc1cc(/C=C/C(=O)CC(=O)/C=C/c2ccc(O)c(OC)c2)ccc1O,fluorescence lifetime,in C1CCCCC1,0.064 ns
same,fluorescence lifetime,in CC#N,0.376 ns
same,fluorescence lifetime,in CN(C)C=O,0.194 ns
same,fluorescence lifetime,in CO,0.148 ns
same,fluorescence lifetime,in CS(C)=O,0.196 ns
same,fluorescence lifetime,in c1ccccc1,0.201 ns
COC(=O)C([NH3+])Cc1ccc2oc(-c3ccncc3)nc2c1 (stereo unspecified),fluorescence lifetime,in CC1CCCCC1,3.12 ns
same,fluorescence lifetime,in CC#N,6.09 ns
same,fluorescence lifetime,in CO,0.742 ns
same,fluorescence lifetime,in O,0.999 ns
COc1cc(/C=C2/SC(=O)NC2=O)ccc1O,fluorescence lifetime,in C1CCCCC1,0.61 ns
same,fluorescence lifetime,in C1COCCO1,1.3 ns
same,fluorescence lifetime,in CC#N,0.291 ns
same,fluorescence lifetime,in CN(C)C=O,4.11 ns
same,fluorescence lifetime,in CO,0.25 ns
same,fluorescence lifetime,in O,0.281 ns
same,fluorescence lifetime,in OCC(O)CO,5.79 ns
same,fluorescence lifetime,in OCCO,2.52 ns
CC(C)(C)c1ccc2c(c1)sc1[n+]2[B-](F)(F)n2c(c3cccc4c(Br)ccc2c43)=N1,fluorescence lifetime,in ClCCl,5 ns
CCCCC(CC)COc1ccc2nc(-c3ccc(-c4cccs4)s3)sc2c1 (stereo unspecified),fluorescence lifetime,in ClCCl,0.42 ns
CC1=[N+]2C(=C(c3ccccc3)c3ccc(/C=C/c4ccc(C(=C(c5ccccc5)c5ccccc5)c5ccccc5)cc4)n3[B-]2(F)F)C=C1,fluorescence lifetime,in C1CCOC1,5.43 ns
Nc1nc2ccc(Br)cc2s1,fluorescence lifetime,in CC#N,1.91 ns
same,fluorescence lifetime,in ClCCl,1.37 ns
N#C/C(=C\c1ccncc1)c1nc(-c2ccccc2)cs1,fluorescence lifetime,in CC#N,4.85 ns
CC(C)c1ccc(/C=C/c2nc3ccc(N(C)C)cc3s2)cc1,fluorescence lifetime,in C1CCCCC1,2.04 ns
same,fluorescence lifetime,in CC#N,3.27 ns
Cc1ccc2c(c1)C(c1ccccc1)(c1ccccc1)c1cc(C)ccc1N2c1ccc2c(c1)N(c1ccccc1)c1ccccc1B2c1c(C(C)C)cc(C(C)C)cc1C(C)C,fluorescence lifetime,in Cc1ccccc1,5.6 ns
same,fluorescence lifetime,[1],8.7 ns
C#CCn1c2ccccc2c2cc(/C=C/c3cc(C)c4n3[B-](F)(F)[N+]3=C(C)C=C(C)C3=C4c3ccc(I)cc3)ccc21,fluorescence lifetime,in CC#N,4.03 ns
same,fluorescence lifetime,in CS(C)=O,3.64 ns
same,fluorescence lifetime,in ClC(Cl)Cl,3.93 ns
Cc1ccc2c(c1)c1cc(C)ccc1n2-c1c(-n2c3ccccc3c3ccccc32)c(C#N)c(-n2c3ccccc3c3ccccc32)c(-n2c3ccc(C)cc3c3cc(C)ccc32)c1-n1c2ccccc2c2ccccc21,fluorescence lifetime,in Cc1ccccc1,5.9 ns
NS(=O)(=O)c1ccc(N2N=C(c3ccc(O)cc3)CC2c2ccccc2)cc1 (stereo unspecified),fluorescence lifetime,in C1CCOC1,2.31 ns
same,fluorescence lifetime,in C1COCCO1,2.36 ns
same,fluorescence lifetime,in CC#N,2.38 ns
same,fluorescence lifetime,in CC(C)O,1.86 ns
same,fluorescence lifetime,in CCO,1.93 ns
same,fluorescence lifetime,in CCOC(C)=O,2.27 ns
same,fluorescence lifetime,in CN(C)C=O,2.4 ns
same,fluorescence lifetime,in CO,1.62 ns
same,fluorescence lifetime,in CS(C)=O,2.45 ns
same,fluorescence lifetime,in O,3.16 ns
N#Cc1ccc(-n2cccc2)cc1,fluorescence lifetime,in CC#N,8.2 ns
same,fluorescence lifetime,in CCCCCC,2.42 ns
same,fluorescence lifetime,in CCOCC,3.8 ns
same,fluorescence lifetime,in ClCCl,3.1 ns
O=C1NC(=O)c2c1c1c3ccccc3[nH]c1c1[nH]c3ccccc3c21,fluorescence lifetime,in C1CCOC1,8.6 ns
same,fluorescence lifetime,in CC#N,10 ns
same,fluorescence lifetime,in CC(C)OC(C)C,7.3 ns
same,fluorescence lifetime,in CCCCOCCCC,8 ns
same,fluorescence lifetime,in CCO,7.7 ns
same,fluorescence lifetime,in CCOC(C)=O,8.6 ns
same,fluorescence lifetime,in CN(C)C=O,13 ns
same,fluorescence lifetime,in ClCCl,7.1 ns
Cc1cc(=O)oc2cc3c4ccc(C(C)(C)C)cc4c4cc(C(C)(C)C)ccc4c3cc12,fluorescence lifetime,in ClC(Cl)Cl,1.3 ns
COc1ccc2c(c1)c(C#N)cc1c(OC)c(OC)c3cc(C#N)c4cc(OC)ccc4c3c12,fluorescence lifetime,in ClC(Cl)Cl,6 ns
N#Cc1ccc(-n2c(-c3ccc(-c4ccc(-c5nc6c7ccccc7c7ccccc7c6n5-c5ccc(C#N)c6ccccc56)cc4)cc3)nc3c4ccccc4c4ccccc4c32)c2ccccc12,fluorescence lifetime,in ClCCl,1.92 ns
CCN(CC)c1ccc2cc(C#N)c(=N)oc2c1,fluorescence lifetime,in ClCCl,2.9 ns
COC(=O)c1cc2c(cc3ccc4cccc5ccc2c3c45)[nH]1,fluorescence lifetime,in C1CCOC1,2.29 ns
O=c1c2cc(Cl)ccc2[nH]c2ccc(COO)cc12,fluorescence lifetime,in O,16.8 ns
CC1(C)CC[N+]2=c3c(cc4c(c31)Oc1cc3c(cc1C=4c1ccccc1C(=O)O)C(c1ccccc1C(=O)O)=c1cc4c5c(c1O3)C(C)(C)CC[N+]=5CCC4)CCC2,fluorescence lifetime,in ClC(Cl)Cl,2.41 ns
CN1CCc2cc(C3=Cc4cccc[n+]4[B-](F)(F)O3)ccc21,fluorescence lifetime,in ClC(Cl)Cl,3.11 ns
CN(C)CCCN1c2ccccc2Sc2ccccc21,fluorescence lifetime,in CC#N,1.85 ns
same,fluorescence lifetime,in CO,1.75 ns
same,fluorescence lifetime,in O,2.04 ns
CN(C)CCCN1c2ccccc2CCc2ccc(Cl)cc21,fluorescence lifetime,in CC#N,0.22 ns
same,fluorescence lifetime,in CO,0.19 ns
same,fluorescence lifetime,in O,0.18 ns
O=S(=O)(c1ccc(N2c3ccccc3N(c3ccccc3)c3ccccc32)cc1)c1ccc(N2c3ccccc3N(c3ccccc3)c3ccccc32)cc1,fluorescence lifetime,in Cc1ccccc1,5.6 ns
same,fluorescence lifetime,[2],10 ns
CC1=C2C=CC(C)=[N+]2[B-](F)(F)n2cccc21,fluorescence lifetime,in CCCCCC,6.61 ns
same,fluorescence lifetime,in CO,6.76 ns
same,fluorescence lifetime,in ClCCl,6.23 ns
COc1ccc(/C=C/c2ccc(-c3ccc(C)cn3)nc2)cc1,fluorescence lifetime,in CC#N,0.58 ns
CN(C)c1ccc(N(C)C)cc1,fluorescence lifetime,in C1CCCCC1,6.1 ns
Cc1ccc2c(nc3c(=O)n(C)c(=O)nc-3n2C)c1C,fluorescence lifetime,in CC#N,3.9 ns
O=P1(c2ccccc2)c2ccc(N3c4ccccc4Sc4ccccc43)cc2-c2cc(N3c4ccccc4Sc4ccccc43)ccc21,fluorescence lifetime,in c1ccc2c(c1)c1ccccc1n2-c1ccc(-c2ccc(-n3c4ccccc4c4ccccc43)cc2)cc1,26 ns
CCCCCCCCCCCn1cccc1C1=[N+]2C(=Cc3c(C)cc(C)n3[B-]2(F)F)c2ccccc21,fluorescence lifetime,in ClCCl,8.89 ns
c1ccc2c(-n3c(-c4ccc(-c5ccc(-c6nc7c8ccccc8c8ccccc8c7n6-c6cccc7ccccc67)c6ccccc56)c5ccccc45)nc4c5ccccc5c5ccccc5c43)cccc2c1,fluorescence lifetime,in ClCCl,1.87 ns
Cc1ccc(C2=C3C=CC(C#Cc4ccccc4)=[N+]3[B-](F)(F)n3c(Cl)ccc32)cc1,fluorescence lifetime,in C1CCCCC1,4.31 ns
same,fluorescence lifetime,in C1CCOC1,4.24 ns
same,fluorescence lifetime,in C1COCCO1,4.43 ns
same,fluorescence lifetime,in CCOC(C)=O,4.34 ns
same,fluorescence lifetime,in CO,4.25 ns
same,fluorescence lifetime,in Cc1ccccc1,4.45 ns
same,fluorescence lifetime,in ClC(Cl)Cl,4.73 ns
